Assay results: ChEMBL document CHEMBL1201862, “PubChem BioAssay data set” (2004)
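The compound was tested at five concentrations on cells cultured in 96-well plates, with a 48-hour exposure period. GI50 is the concentration that inhibits growth by half.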 The source made the active and inactive calls. Cut-off read from the data, not from the text of the source: active = GI50 up to about 1.1 µM and inactive = higher.

How the values were obtained:
Assay in all cases: growth of human tumour cells (NCI), 48 h
RXF 393 = system: RXF 393
UACC-257 = system: UACC-257
SK-MEL-2 = system: SK-MEL-2
RPMI-8226 = system: RPMI-8226
UACC-62 = system: UACC-62
U-251 = system: U-251
HL-60 = system: HL-60
SF-539 = system: SF-539
OVCAR-5 = system: OVCAR-5
SW-620 = system: SW-620
SK-MEL-5 = system: SK-MEL-5
UO-31 = system: UO-31
COLO 205 = system: COLO 205
TK-10 = system: TK-10
OVCAR-3 = system: OVCAR-3
A549 = system: A549
KM12 = system: KM12
SNB-75 = system: SNB-75

Row | Structure (SMILES) | GI50 (RXF 393) | GI50 (UACC-257) | GI50 (SK-MEL-2) | GI50 (RPMI-8226) | GI50 (UACC-62) | GI50 (U-251) | GI50 (HL-60) | GI50 (SF-539) | GI50 (OVCAR-5) | GI50 (SW-620) | GI50 (SK-MEL-5) | GI50 (UO-31) | GI50 (COLO 205) | GI50 (TK-10) | GI50 (OVCAR-3) | GI50 (A549) | GI50 (KM12) | GI50 (SNB-75)
1 | CCN(CC)CCNc1ccc(C)c2sc3ccc(O)cc3c(=O)c12 | 2.51 µM (inactive) | 1.55 µM (inactive) | 1.79 µM (inactive) | 1.05 µM (active) | 0.986 µM (active) | 1.09 µM (active) | 0.106 µM (active) | 1.15 µM (inactive) | 4.1 µM (inactive) | 0.582 µM (active) | 0.851 µM (active) | 1.14 µM (inactive) | 1.62 µM (inactive) | 3.4 µM (inactive) | 2.15 µM (inactive) | < 0.0431 µM (active) | 1.43 µM (inactive) | 1.05 µM (active)
2 | COC(=O)c1ccc(/C=C/S(=O)(=O)c2ccccc2)cc1 | > 100 µM (inactive) | > 100 µM (inactive) | > 100 µM (inactive) | > 100 µM (inactive) | > 100 µM (inactive) | > 100 µM (inactive) | > 100 µM (inactive) | > 100 µM (inactive) | > 100 µM (inactive) | > 100 µM (inactive) | > 100 µM (inactive) | > 100 µM (inactive) | > 100 µM (inactive) | > 100 µM (inactive) | > 100 µM (inactive) | > 100 µM (inactive) | > 100 µM (inactive) | 67.6 µM (inactive)
3 | Cc1ccc(C2[C@H]3C(=O)N(c4ccc(Cc5ccc(N6C(=O)[C@@H]7ON(c8ccccc8)C(c8ccc(C)cc8)[C@@H]7C6=O)cc5)cc4)C(=O)[C@H]3ON2c2ccccc2)cc1 (stereo partly drawn) | > 100 µM (inactive) | > 100 µM (inactive) | > 100 µM (inactive) | > 100 µM (inactive) | > 100 µM (inactive) | > 100 µM (inactive) | > 100 µM (inactive) | > 100 µM (inactive) | > 100 µM (inactive) | > 100 µM (inactive) | > 100 µM (inactive) | > 100 µM (inactive) | > 100 µM (inactive) | – | > 100 µM (inactive) | > 100 µM (inactive) | > 100 µM (inactive) | 99.8 µM (inactive)
4 | O=C1NC(=O)C(C(=O)C(=O)Nc2cc(Cl)ccc2Cl)C(=O)N1 | > 100 µM (inactive) | > 100 µM (inactive) | > 100 µM (inactive) | > 100 µM (inactive) | > 100 µM (inactive) | > 100 µM (inactive) | > 100 µM (inactive) | > 100 µM (inactive) | > 100 µM (inactive) | > 100 µM (inactive) | > 100 µM (inactive) | > 100 µM (inactive) | > 100 µM (inactive) | > 100 µM (inactive) | > 100 µM (inactive) | > 100 µM (inactive) | > 100 µM (inactive) | 83.2 µM (inactive)
5 | O=C(Nc1ccccc1SC(/C=C/NNC1=NN=C(c2ccccc2)C(c2ccccc2)N1)c1ccccc1)c1ccc(Cl)cc1Cl (stereo not drawn) | 40.7 µM (inactive) | > 100 µM (inactive) | 20.9 µM (inactive) | 58.6 µM (inactive) | 36.8 µM (inactive) | 25.6 µM (inactive) | 35.6 µM (inactive) | 23.3 µM (inactive) | 44.8 µM (inactive) | > 100 µM (inactive) | 42.8 µM (inactive) | 34 µM (inactive) | > 100 µM (inactive) | > 100 µM (inactive) | 44.5 µM (inactive) | 38.9 µM (inactive) | 38.1 µM (inactive) | 52.4 µM (inactive)
6 | CC(=O)Nc1ccc(C2C(C(=O)Nc3ccccc3C)=C(C)NC(C)=C2C(=O)Nc2ccccc2C)cc1 | > 100 µM (inactive) | 96.6 µM (inactive) | > 100 µM (inactive) | > 100 µM (inactive) | > 92.3 µM (inactive) | > 100 µM (inactive) | 39.5 µM (inactive) | > 100 µM (inactive) | > 100 µM (inactive) | > 100 µM (inactive) | > 100 µM (inactive) | > 100 µM (inactive) | > 100 µM (inactive) | > 100 µM (inactive) | > 100 µM (inactive) | > 100 µM (inactive) | > 31.6 µM (inactive) | > 61.2 µM (inactive)
7 | CCOC(=O)CCC(NC(=O)c1ccc(NCc2ccc3nc(-c4ccccc4)c(Cl)nc3c2)cc1)C(=O)OCC (stereo not drawn) | 48.9 µM (inactive) | – | 10.6 µM (inactive) | 18.2 µM (inactive) | – | 69.7 µM (inactive) | 17.4 µM (inactive) | 35.8 µM (inactive) | > 100 µM (inactive) | > 100 µM (inactive) | 11.3 µM (inactive) | 22.9 µM (inactive) | 20.5 µM (inactive) | 83.9 µM (inactive) | 17.2 µM (inactive) | 47.8 µM (inactive) | > 100 µM (inactive) | 16.9 µM (inactive)
8 | NC(=O)C(=O)N/N=C(\CC1(O)C(=O)Nc2ccccc21)c1ccc2ccccc2c1 (stereo not drawn) | 24.8 µM (inactive) | 28.5 µM (inactive) | 22.1 µM (inactive) | 34.4 µM (inactive) | 19.8 µM (inactive) | 25.9 µM (inactive) | 16.6 µM (inactive) | 48.9 µM (inactive) | > 100 µM (inactive) | 33.5 µM (inactive) | 32.3 µM (inactive) | 40.1 µM (inactive) | 22.8 µM (inactive) | 50.2 µM (inactive) | 25.8 µM (inactive) | 20.7 µM (inactive) | 21.7 µM (inactive) | 40.6 µM (inactive)
9 | CC(=O)OC12C=CC(=O)N1c1ccccc1C(=O)O2 (stereo not drawn) | > 100 µM (inactive) | > 100 µM (inactive) | > 100 µM (inactive) | > 100 µM (inactive) | > 100 µM (inactive) | > 100 µM (inactive) | > 100 µM (inactive) | > 100 µM (inactive) | > 100 µM (inactive) | > 100 µM (inactive) | > 100 µM (inactive) | > 100 µM (inactive) | > 100 µM (inactive) | > 100 µM (inactive) | > 100 µM (inactive) | > 100 µM (inactive) | > 100 µM (inactive) | > 100 µM (inactive)
10 | CCC1(CN(C)C)CC/C(=C\c2ccc3c(c2)OCO3)C1=O (stereo not drawn) | > 100 µM (inactive) | > 100 µM (inactive) | > 100 µM (inactive) | 40.7 µM (inactive) | > 100 µM (inactive) | > 100 µM (inactive) | 11.4 µM (inactive) | > 100 µM (inactive) | > 100 µM (inactive) | > 100 µM (inactive) | 62.5 µM (inactive) | 91.8 µM (inactive) | > 100 µM (inactive) | > 100 µM (inactive) | > 100 µM (inactive) | > 100 µM (inactive) | > 100 µM (inactive) | > 100 µM (inactive)
11 | CC1C=C[C@H](Sc2ccccc2)CC[C@@]1(C)O (stereo partly drawn) | 76.2 µM (inactive) | > 100 µM (inactive) | > 100 µM (inactive) | 57.3 µM (inactive) | 86.1 µM (inactive) | > 100 µM (inactive) | 33.6 µM (inactive) | > 100 µM (inactive) | > 100 µM (inactive) | > 100 µM (inactive) | 59.4 µM (inactive) | 30.1 µM (inactive) | > 100 µM (inactive) | > 100 µM (inactive) | – | > 100 µM (inactive) | – | 97.1 µM (inactive)
